Source: patent US20060111346A1, “Methods of modulating high-density lipoprotein cholesterol levels and pharmaceutical formulations for the same” (Fazix Corporation., priority 2004, published 2006)
Where two headings read alike, the source gives them in different places.

Key:
[1] = biological target: T1, CETP (Oryctolagus cuniculus, UniProt P22687); assay: CETP Inhibitor Drug Screening Kit (Biovision K602-100), cholesterol transfer activity; format: biochemical; details: 100 μM
T1 construct: purchased Biovision Research Products K602-100
T1 sequence (P22687 2-497): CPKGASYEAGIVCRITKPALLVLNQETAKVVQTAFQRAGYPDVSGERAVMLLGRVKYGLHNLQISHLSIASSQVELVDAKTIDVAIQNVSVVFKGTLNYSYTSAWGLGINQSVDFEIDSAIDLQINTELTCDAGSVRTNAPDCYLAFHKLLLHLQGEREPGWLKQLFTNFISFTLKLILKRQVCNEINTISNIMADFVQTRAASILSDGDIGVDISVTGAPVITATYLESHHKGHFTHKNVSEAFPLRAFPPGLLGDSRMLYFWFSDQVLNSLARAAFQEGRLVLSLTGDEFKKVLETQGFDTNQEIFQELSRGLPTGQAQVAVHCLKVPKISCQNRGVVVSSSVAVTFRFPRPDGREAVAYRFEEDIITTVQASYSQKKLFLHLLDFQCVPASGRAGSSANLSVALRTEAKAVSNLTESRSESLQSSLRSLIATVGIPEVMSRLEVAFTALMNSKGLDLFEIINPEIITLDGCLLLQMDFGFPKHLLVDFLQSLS
Method: The inhibitory activity of FZX-CETP-001 was determined in vitro using a commercially available CETP Inhibitor Drug Screening Kit (catalog # K602-100). The kit is available from Biovision Research Products, located in Mountain View, Calif. USA. Information regarding the kit is available at the following url addresses: http://www.biovisionlabs.com/cetp-pltp.html; and http://www.biovision.com/pdf/K602-100.pdf
Following the directions provided with the kit, FZX-CETP-001 was assayed for inhibitory activity.

[2] = system: Apo*E3Leiden.hCETP mice; details: for HDL cholesterol relative to control group / HDL phospholipids relative to control group / LDL cholesterol relative to control group / LDL phospholipids relative to control group: pooled blood
Method: A test group of 36 female transgenic Apo*E3Leiden/hCETP mice were fed a high fat western-type diet (containing by weight 15% coconut oil and 0.1% cholesterol) to increase plasma cholesterol levels to around 10 mM. After three weeks the mice were subdivided into 6 groups of 6 mice each, matched for plasma cholesterol, triglycerides and age.
Oral gavage at each separate concentration was administered with an aqueous solution containing by volume 5% ethanol, 4% PEG-400, 1% cremaphor over a period of 1 week per concentration. At the end of each 1 week treatment period, blood samples were collected after a 4 hours fasting period. Mice treated by oral gavage were left alone for 1 week after each collection of blood samples.
For each subcutaneous depot injection experiment, the appropriate dose in sesame oil solution was injected once and blood samples were collected 24 hours after injection (at the end of a 4 hour fasting period). Mice treated by subcutaneous injection were left alone for 13 days after each collection of blood samples.
Blood samples from untreated test animals and from animals treated by gavage or subcutaneous depot injection were pooled separately and a lipoprotein profile was measured by AKTA fast protein liquid chromatography (FPLC)(http://www.gmi-inc.com/BioTechLab/Pharmacia%20AKTA.htm) to determine the level of cholesterol and phospholipid associated with HDL and LDL. […] Additionally, food intake levels (per group), body weights, cholesterol levels, and triglyceride levels, were monitored.

[3] = oral gavage 0.1 mg/kg/day, 1 week
[4] = oral gavage 0.3 mg/kg/day, 1 week
[5] = oral gavage 1.0 mg/kg/day, 1 week
[6] = serum cholesterol profiles, FIGS. 2A-2D, increasing dose
[7] = serum phospholipid profiles, increasing dose
[8] = subcutaneous depot injection 0.3 mg/kg, 24 hours after injection
[9] = subcutaneous depot injection 1.0 mg/kg, 24 hours after injection
[10] = subcutaneous depot injection 3.0 mg/kg, 24 hours after injection

For `CC(C)(Oc1ccc(Cl)cc1)C(=O)OCCN1CCN(CCCN2c3ccccc3Sc3ccc(C(F)(F)F)cc32)CC1` [FZX-CETP-0001, Fluphenazine 4-chlorophenoxyisobutyric acid ester], which “inhibition of CETP” value [1] is on record?
The value was 100%.

And the “Cholesterol Transfer Activity, Fluorescence Units” value ([1]; Average, N = 2)?
Its value is 8312 Fluorescence Units.

What about the “HDL-C to LDL-C ratio” value ([2]; lowest tested dosage of 0.1 mg/kg/day by gavage, treated vs untreated control) of the same molecule?
The value was “marked increase”.

And the “control parameters (food intake levels, body weights, cholesterol levels, triglyceride levels)” value ([2]; mouse, in vivo)?
The value was “no statistically significant difference”.

And the “HDL cholesterol relative to control group” value [2, 3]?
The value was 204%.

What about the “HDL phospholipids relative to control group” value [2, 3] of the same molecule?
Its value is 128%.

And the “LDL cholesterol relative to control group” value [2, 3]?
The value was 81%.

What about the “LDL phospholipids relative to control group” value [2, 3] of the same molecule?
The value was 81%.

What about the “HDL cholesterol relative to control group” value [2, 4] of the same molecule?
Its value is 121%.

And the “HDL phospholipids relative to control group” value [2, 4]?
Its value is 136%.

And the “LDL cholesterol relative to control group” value [2, 4]?
Its value is 94%.

What about the “LDL phospholipids relative to control group” value [2, 4] of the same molecule?
The value was 92%.

And the “HDL cholesterol relative to control group” value [2, 5]?
Its value is 269%.

What about the “HDL phospholipids relative to control group” value [2, 5] of the same molecule?
Its value is 129%.

What about the “LDL cholesterol relative to control group” value [2, 5] of the same molecule?
Its value is 80%.

What about the “LDL phospholipids relative to control group” value [2, 5] of the same molecule?
Its value is 96%.

What about the “ratio of HDL-C level in the treated to untreated mice” value [2, 6] of the same molecule?
The value was “increases”.

And the “ratio of LDL-C level (total area under the curve) in treated to untreated mice” value [2, 6]?
Its value is “decreases with increasing dose”.

What about the “ratio of HDL-C level in the treated to untreated mice” value [2, 7] of the same molecule?
The value was “increases”.

And the “ratio of LDL-C phospholipid level (total area under the curve) in treated to untreated mice” value [2, 7]?
The value was “decreases with increasing dose”.

And the “HDL cholesterol relative to control group” value [2, 8]?
Its value is 286%.

And the “HDL phospholipids relative to control group” value [2, 8]?
The value was 141%.

What about the “LDL cholesterol relative to control group” value [2, 8] of the same molecule?
Its value is 100%.

And the “LDL phospholipids relative to control group” value [2, 8]?
Its value is 71%.

What about the “HDL cholesterol relative to control group” value [2, 9] of the same molecule?
The value was 277%.

And the “HDL phospholipids relative to control group” value [2, 9]?
Its value is 173%.

And the “LDL cholesterol relative to control group” value [2, 9]?
Its value is 78%.

What about the “LDL phospholipids relative to control group” value [2, 9] of the same molecule?
The value was 56%.

And the “HDL cholesterol relative to control group” value [2, 10]?
The value was 1119%.

And the “HDL phospholipids relative to control group” value [2, 10]?
The value was 169%.

What about the “LDL cholesterol relative to control group” value [2, 10] of the same molecule?
The value was 55%.

What about the “LDL phospholipids relative to control group” value [2, 10] of the same molecule?
Its value is 70%.

What about the triglyceride level ([2]; subcutaneous injections at doses at or above 1 mg/kg) of the same molecule?
Its triglyceride level is “slightly reduced”.
